Test results reported in publication PMC9459403, “New inhibitors of cathepsin V impair tumor cell proliferation and elastin degradation and increase immune cell cytotoxicity” (Computational and Structural Biotechnology Journal, 2022).
Marks after values point to notes of the source that are not given here.

Tests used:
Type in all cases: biochemical
[1] = target: T1, Cathepsin V (Homo sapiens, UniProt O60911); assay: Determination of relative inhibition, substrate Z-Phe-Arg-AMC; conditions: inhibitor 50 μM; substrate 2 μM; mean ± SD (n = 2); read-out: Cathepsin V Ri (%) relative inhibition
T1 construct: made in house; host or cells: Pichia pastoris
T1 sequence (O60911 114-334): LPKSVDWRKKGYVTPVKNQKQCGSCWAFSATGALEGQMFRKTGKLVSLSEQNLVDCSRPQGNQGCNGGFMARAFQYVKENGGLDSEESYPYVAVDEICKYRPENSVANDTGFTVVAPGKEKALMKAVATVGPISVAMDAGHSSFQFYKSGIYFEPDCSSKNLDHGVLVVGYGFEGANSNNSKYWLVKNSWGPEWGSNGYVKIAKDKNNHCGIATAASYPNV
Procedure: (§1) Human recombinant cathepsin V was expressed in Pichia Pastoris, and human recombinant cathepsin L was expressed in Escherichia coli, as reported, [51]. To determine the activities of cathepsins V and L, 100 mM acetate buffer (pH 5.5), containing 0.1 % PEG 8000 (Sigma-Aldrich, St. Louis, MO, USA), 5 mM cysteine, and 1.5 mM EDTA was used. Prior to the assay, the enzyme was activated in the assay buffer for 5 min at 37 °C.
(§2) The effect of the inhibitors on cathepsin V and L activity was determined using the substrate Z-Phe-Arg-AMC (Bachem, Bubendorf, Switzerland). The reaction was initiated by adding 90 μL of the activated enzyme (final concentration 2.5 ng/mL and 0.02 nM for cathepsins V and L, respectively) to the wells of a black microtiter plate containing 5 μL of substrate (with a final concentration 2 μM) and 5 μL of inhibitor (with a final concentration of 50 μM). The formation of fluorescent degradation products during the reaction was monitored continuously at 460 nm ± 10 nm with excitation at 380 nm ± 20 nm at 37 °C on a Tecan Infinite M1000 (Mannedorf, Switzerland) spectrofluorometer. All assay mixtures contained 5 % (v/v) DMSO. To prevent false-positive inhibition due to the formation of compound aggregates, 0.01 % Triton X-100 was used. All measurements were performed in triplicate and repeated at least twice. Relative inhibition was calculated using the following equation: relative inhibition (%) = 100(1- vi/vo), where vi and vo denote the reaction velocities in the presence and absence of the inhibitor, respectively.

[2] = target: T2, human recombinant cathepsin L (Homo sapiens, UniProt P07711); assay: as above; conditions: inhibitor 50 μM; substrate 2 μM; mean ± SD (n = 2); read-out: Cathepsin L Ri (%) relative inhibition
T2 construct: made in house; host or cells: Escherichia coli
T2 sequence (P07711 114-333): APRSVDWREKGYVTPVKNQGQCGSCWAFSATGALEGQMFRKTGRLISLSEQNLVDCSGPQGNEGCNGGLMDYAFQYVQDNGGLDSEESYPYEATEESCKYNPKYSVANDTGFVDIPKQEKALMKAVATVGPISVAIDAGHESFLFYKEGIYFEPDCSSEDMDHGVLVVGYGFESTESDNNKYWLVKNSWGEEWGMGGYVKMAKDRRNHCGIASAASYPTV
Procedure: as §1, §2

[3] = target: T2, human recombinant cathepsin L; assay: Determination of Ki values and mode of inhibition; conditions: mean ± SD (n = 2)
Procedure: as §1
(§3) Inhibition constants were calculated from reaction velocities measured at three substrate concentrations (0.5, 1, and 4 μM) in the presence of inhibitors at seven concentrations (0, 20, 40, 60, 80, 100, and 200 µM). The reaction was initiated by adding 90 μL of enzyme at final concentrations of 2.5 ng/mL and 0.02 nM for cathepsins V and L, respectively, to the wells of a black microtiter plate containing 5 μL of substrate and 5 μL of inhibitor. To evaluate cathepsin V and L activity, the substrate Z-Phe-Arg-AMC was used. The formation of the fluorescent degradation products was monitored as described above. All assay mixtures contained 5 % (v/v) DMSO. All measurements were performed in duplicates and repeated at least twice. The SigmaPlot® 12, Enzyme Kinetics Module™ 1.3 was used to calculate Ki values.

[4] = target: T1, Cathepsin V; assay: Determination of Ki values and mode of inhibition; conditions: mean ± SD (n = 2)
Procedure: as §1, §3

[5] = target: T1, Cathepsin V; assay: Determination of binding reversibility (dilution method); conditions: inhibitor 100 μM, cathepsin V 500 ng/ml
Procedure: Binding reversibility was determined according to the dilution method, which measures the recovery of enzymatic activity after rapid dilution of the enzyme-inhibitor complex. Cathepsin V (500 ng/ml) was incubated in the assay buffer with the inhibitor (100 μM). Half of the reaction mixture was immediately diluted 100-fold with the assay buffer and added to the wells of a black microplate containing 5 μL of substrate (at a final concentration of 2 μM), and the activity was measured. The other half of the reaction mixture was incubated for 2 h before it was diluted 100-fold, and then the activity was measured. The assay was performed in triplicates and repeated at least two times.

SMILES	inhibition at 50 µM [1] [%]	inhibition at 50 µM [2] [%]	also measured
O=C(Nc1cc(Cl)ccc1Cl)c1cnc2n(c1=O)CCS2 [Compound 1]	-5.4 ± 2.4	4.8 ± 3.9	
COc1ccc(-c2cn3c(CCC(=O)Nc4nc5ccccc5s4)csc3n2)cc1 [Compound 9]	18.9 ± 1.3	17.5 ± 5.3	
Brc1ccccc1CNc1ncncc1-c1nc(-c2ccsc2)no1 [Compound 11]	-3.1 ± 4.6	6.3 ± 2.6	
Cc1c(C(=O)N2CC(N3CCc4ccccc4C3)C2)cnn1-c1ccccc1 [Compound 15]	-27.6 ± 9.1	-5.4 ± 7.3	
Cc1nccc(O[C@H]2CCN(S(=O)(=O)/C=C/c3ccccc3)C2)n1 [Compound 16]	-6.5 ± 0.9	-1 ± 4.8	
Cc1cc(CNC(=O)Cc2cccc3ccccc23)ncn1 [Compound 17]	-2.4 ± 5.6	9.4 ± 9.5	
Cc1noc(-c2cccn3c(CNC(=O)c4cc(-c5cccs5)n[nH]4)nnc23)n1 [Compound 18]	6.7 ± 0.03	13 ± 7.9	
O=C(NCc1nnc2c(C(F)(F)F)cccn12)c1cc(-c2cccs2)n[nH]1 [Compound 19]	3.8 ± 3.5	17.8 ± 13.7	
COC(=O)Cc1c[nH]c2ccc(OCC3CO3)cc12 (stereo not shown) [Compound 21]	> 20	15.3 ± 2.9	Ki [4]: 159 ± 32.8 µM; Ki [3]: 236 ± 10.3 µM
COc1ccc(C(=O)C2OC2c2cc3ccccc3o2)c(OCc2ccccc2)c1 (stereo not shown) [Compound 22]	-7.2 ± 7.7	11.1 ± 4.4	
O=c1cc(-c2ccccc2)c2cc(Cl)c(OCC3CO3)cc2o1 (stereo not shown) [Compound 23]	-2.9 ± 1.8	11.9 ± 6.2	
O=C(Nc1nc2c(s1)CN(Cc1ccccc1)CC2)c1ccc(-c2ccccc2)cc1 [Compound 31]	29.2 ± 7	20.9 ± 7.2	
CC(=O)N1CCc2cc(C(=O)C(C)OC(=O)CCc3nc(-c4cccs4)no3)ccc21 (stereo not shown) [Compound 34]		-3 ± 0.5	
O=C(NCC(O)CN1CCOCC1)c1cc2cc(Br)ccc2[nH]1 (stereo not shown) [Compound 35]	16.6 ± 8.4	12 ± 1.3	
Cc1[nH]c(C(=O)NCCCc2nc3ccccc3[nH]2)c(C)c1C(=O)OC(C)C [Compound 37]	-3.4 ± 2.9	-2.1 ± 0.7	
CNC(=O)C1(COC)CCCN1C(=O)CN1CCOCC1=O (stereo not shown) [Compound 38]	7.9 ± 0.4	2.3 ± 3.1	
Cc1nc(C2OC2C(=O)c2ccccc2OCc2ccccc2)cs1 (stereo not shown) [Compound 39]	17.1 ± 7.2	6.1 ± 0.7	Ki [4]: 403 ± 79.7 µM; Cathepsin L Ki′ (µM) [3]: 725.7 ± 142.3^e µM; Ki [3]: 726 ± 142 µM
O=C(NCc1ccc(F)cc1)NCC1CCN(C(=O)Oc2ccccc2)CC1 [Compound 41]	17.7 ± 6.1	4.2 ± 0.9	Cathepsin V Ki′ (µM) [4]: 612.5 ± 23.9^e µM; Ki [4]: 612 ± 23.9 µM; Cathepsin L Ki (µM) [3]: n.i.^g; Cathepsin L Ki′ (µM) [3]: n.i.^g
COCCN1CCC(CNC(=O)NCc2ccc(OC)cc2)CC1 [Compound 43]	5.2 ± 1.8	-0.4 ± 2.5	
COc1ccc(CNC(=O)NCC2CCN(C(=O)Oc3ccccc3)CC2)cc1 [Compound 47]	9.5 ± 2.5	4.4 ± 4.6	
Cc1cc(OCc2ccccc2)c(C(=O)C2OC2c2csc(-c3ccccc3)n2)cc1C (stereo not shown) [Compound 49]	22.9 ± 1	12.9 ± 0.5	Ki [4]: 303 ± 11.3 µM; Ki [3]: 546 ± 114 µM
COC(=O)Cc1c[nH]c2ccc(OCC(O)CNC(C)C)cc12 (stereo not shown) [Compound 52]	0.3 ± 8.8	-0.7 ± 1.5	
CC(C)C[C@H](NC(=O)[C@H]1O[C@@H]1C(=O)O)C(=O)NCCCCN=C(N)N [Compound E-64, reference compound]			binding reversibility: cathepsin V activity after 2 h incubation and 100-fold rapid dilution [5]: remained inhibited

The next lines start with results.

inhibition at 50 µM [1] [%]	inhibition at 50 µM [2] [%]	SMILES	also measured
16.4 ± 0.3	20 ± 2.2	Cc1ccc(Cl)c2sc(NC(=O)c3ccc(S(=O)(=O)N4CCc5ccccc5C4)cc3)nc12 [Compound 2]	Ki [3]: 162 ± 1.8 µM
	147 ± 88.7	Cc1cc(C)c2sc(NC(=O)c3ccc(S(=O)(=O)N4CCc5ccccc5C4)cc3)nc2c1 [Compound 3]	
> 20	40.3 ± 4.5	COc1ccc(NC(C)=O)cc1NC(=O)c1n[nH]c2ccccc12 [Compound 6]	Ki [4]: 371 ± 86.1 µM; Ki [3]: 635 ± 167 µM
-20.3 ± 3.5	-4.4 ± 2.1	O=C(NCCN1CCN(c2ccc(Cl)cc2)CC1)[C@H]1CC(=O)N(c2ccccc2)C1 [Compound 8]	
17.8 ± 3.3	21.5 ± 1.2	O=C(NCc1cccc2ccccc12)Nc1ccc2c(c1)CCCN2C(=O)c1cccs1 [Compound 10]	
-9.5 ± 9.2	15.6 ± 1.2	CC1Oc2ccccc2OC1C(=O)NCC#CCN1CCc2ccccc2C1 (stereo not shown) [Compound 12]	
7.5 ± 5	13.4 ± 1.4	O=C(Nc1ccc(F)cc1)OC1CCCC(NC(=O)c2c(F)cccc2F)C1 (stereo not shown) [Compound 13]	
7.8 ± 3.1	13.1 ± 2.6	O=C(NC[C@H]1CCCN1c1ccccc1)c1cccnc1 [Compound 14]	
16.9 ± 0.6	14.5 ± 2.4	O=C(NCc1nnc2c(C(F)(F)F)cccn12)c1cc2cc(Cl)ccc2[nH]1 [Compound 20]	
0.8 ± 3.3	17.7 ± 11.7	O=C(c1cc(F)ccc1OCc1ccccc1)C1OC1c1ccc2c(c1)OCCO2 (stereo not shown) [Compound 24]	
6.3 ± 4.6	10.6 ± 4.5	O=C(c1cc(Br)ccc1OCc1ccccc1)C1OC1c1cc2ccccc2o1 (stereo not shown) [Compound 26]	Ki [3]: 375 ± 20.5 µM
1.1 ± 9	-4.6 ± 5.2	O=C(N[C@H]1CCCN(Cc2ccccc2)C1)c1ccc(CN2CCCC2)o1 [Compound 28]	
-0.5 ± 1.2	-2.4 ± 2	O=C(CN1Cc2ccccc2C1)NC1CCCN(Cc2cccc(O)c2)C1 (stereo not shown) [Compound 29]	
-2 ± 3.3	-1.2 ± 0.3	CN(C)c1ccc(CC(=O)NC2CCCN(Cc3cccnc3)C2)cc1 (stereo not shown) [Compound 30]	
6.9 ± 2.2	4.7 ± 3.2	O=C(Nc1nc2c(s1)CN(Cc1ccccc1)CC2)c1ccccc1 [Compound 32]	
-1.6 ± 6.5	3.4 ± 4.4	CCOC(=O)N1CCC(NC(=O)NCc2ccc(OC)cc2)CC1 [Compound 33]	
15.2 ± 10	-0.6 ± 1.7	COc1ccc(CNC(=O)N2CCC(C(N)=O)CC2)cc1 [Compound 36]	
11.1 ± 11.5	1.1 ± 4.9	COC(=O)N1CCC(CNC(=O)NCc2cccc3ccccc23)CC1 [Compound 44]	
9.2 ± 6.4	3.3 ± 2.4	COC(=O)N1CCC(CNC(=O)NC(c2ccccc2)c2ccccc2)CC1 [Compound 45]	
12.1 ± 9.8	4.3 ± 4.1	COc1ccc(CNC(=O)NCC2CCN(C(=O)N(C)C)CC2)cc1 [Compound 46]	
20.4 ± 14.5	5.7 ± 3.6	O=C(NCC1CCN(C(=O)Oc2ccccc2)CC1)c1ccccc1 [Compound 48]	Ki [4]: 1190 ± 468 µM; Ki [3]: 1190 ± 357 µM
-2.9 ± 4	13.8 ± 0.5	COc1ccc(CNC(=O)N2CCC(C(=O)N3CCCCC3)CC2)cc1 [Compound 50]	
-9.8 ± 5.8	-4 ± 7.3	O=C(NC(Cc1ccccc1)C(=O)O)C1CCC(CNC(=O)C2Cc3ccccc3CN2)CC1 (stereo not shown) [Compound 51]	
